# Measurements: ChEMBL document CHEMBL5506065, “Discovery of Novel Non-Nucleoside Inhibitors Interacting with Dizinc Ions of CD73” (J Med Chem, 2024)
# The source made the active and inactive calls. The calls are words filed in the database; no cut-off is given here.
# How the values were obtained:
# [1] = Inhibition of CD73 in human MDA-MB-231 cells using AMP substrate measured after 60 mins by cell based - malachite green phosphate assay; details: MDA-MB-231, 1 h
# [2] = Inhibition of recombinant human CD73 expressed in Escherichia coli using AMP as substrate measured after 60 mins by malachite green method
# [3] = tested on: E.G7-OVA; assay: In vivo antitumor activity against mouse E.G7-OVA T cell lymphoma subcutaneously injected in syngeneic C57/BL6 mouse model assessed as tumor growth inhibition at 2.5 mg/kg, iv qw (tail vein) measured after 16 days; type: functional; details: 384 h, time 16 day, read-out: TGI
# [4] = Half life in male Sprague-Dawley rat; type: ADME; details: in vivo
# [5] = Cmax in male Sprague-Dawley rat at 10 mg/kg, po; type: ADME, organism-based; details: in vivo
# [6] = Cmax in male Sprague-Dawley rat at 1 mg/kg, iv; type: ADME, organism-based; details: in vivo
# [7] = AUC (0 to t) in male Sprague-Dawley rat at 10 mg/kg, po; type: ADME, organism-based; details: in vivo
# [8] = Clearance in male Sprague-Dawley rat at 1 mg/kg, iv; type: ADME, organism-based; details: in vivo
# [9] = tested on: E.G7-OVA; assay: In vivo antitumor immunity against mouse E.G7-OVA T cell lymphoma subcutaneously injected in syngeneic C57/BL6 mouse model assessed as tumor-infiltrating lymphocyte by measuring increase in CD8 positive/Treg ratio at 1 mg/kg, iv qd (tail vein) measured after 16 days by flow cytometry; type: functional, organism-based; details: time 16.0 day
# [10] = tested on: E.G7-OVA; assay: In vivo antitumor activity against mouse E.G7-OVA T cell lymphoma subcutaneously injected in syngeneic C57/BL6 mouse model assessed as tumor growth inhibition in presence of doxorubicin at 1 mg/kg, iv qd (tail vein) measured after 16 days; type: functional; details: 384 h, time 16 day, read-out: TGI
# [11] = tested on: E.G7-OVA; assay: In vivo antitumor immunity against mouse E.G7-OVA T cell lymphoma subcutaneously injected in syngeneic C57/BL6 mouse model assessed as tumor-infiltrating lymphocyte by measuring increase in CD8 positive T cell in total CD45 positive cells in presence of doxorubicin at 1 mg/kg, iv qd (tail vein) measured after 16 days by flow cytometry; type: functional, organism-based; details: time 16.0 day
# [12] = tested on: E.G7-OVA; assay: In vivo antitumor activity against mouse E.G7-OVA T cell lymphoma subcutaneously injected in syngeneic C57/BL6 mouse model assessed as tumor growth inhibition at 50 mg/kg, ip measured after 14 days; type: functional; details: 336 h, time 14 day, read-out: TGI
# [13] = Clearance in male Sprague-Dawley rat at 10 mg/kg, po; type: ADME, organism-based; details: in vivo
# [14] = Tmax in male Sprague-Dawley rat at 10 mg/kg, po; type: ADME, organism-based; details: in vivo
# [15] = tested on: E.G7-OVA; assay: In vivo antitumor immunity against mouse E.G7-OVA T cell lymphoma subcutaneously injected in syngeneic C57/BL6 mouse model assessed as tumor-infiltrating lymphocyte by measuring increase in CD8 positive T cell in total CD45 positive cells at 1 mg/kg, iv qd (tail vein) measured after 16 days by flow cytometry; type: functional, organism-based; details: time 16.0 day
# [16] = tested on: E.G7-OVA; assay: In vivo antitumor activity against mouse E.G7-OVA T cell lymphoma subcutaneously injected in syngeneic C57/BL6 mouse model assessed as tumor growth inhibition at 1 mg/kg, iv qd (tail vein) measured after 16 days; type: functional; details: 384 h, time 16 day, read-out: TGI
# [17] = tested on: E.G7-OVA; assay: In vivo antitumor activity against mouse E.G7-OVA T cell lymphoma subcutaneously injected in syngeneic C57/BL6 mouse model assessed as tumor growth inhibition in presence of KG035 at 50 mg/kg, ip measured after 14 days; type: functional; details: 336 h, time 14 day, read-out: TGI
# [18] = tested on: E.G7-OVA; assay: In vivo antitumor immunity against mouse E.G7-OVA T cell lymphoma subcutaneously injected in syngeneic C57/BL6 mouse model assessed as tumor-infiltrating lymphocyte by measuring increase in CD8 positive/Treg ratio in presence of doxorubicin at 1 mg/kg, iv qd (tail vein) measured after 16 days by flow cytometry; type: functional, organism-based; details: time 16.0 day
# [19] = Toxicity in C57/BL6 mouse subcutaneously injected with mouse E.G7-OVA T cells assessed as change in body weight at 1 mg/kg, iv qd treated for 16 days; type: organism-based, T-cell; details: in vivo, 384 h, time 16 day
# [20] = AUC (0 to t) in male Sprague-Dawley rat at 1 mg/kg, iv; type: ADME, organism-based; details: in vivo
# [21] = Half life in male Sprague-Dawley rat at 10 mg/kg, po; type: ADME, organism-based; details: in vivo
# [22] = Tmax in male Sprague-Dawley rat at 1 mg/kg, iv; type: ADME, organism-based; details: in vivo
# [23] = Half life in male Sprague-Dawley rat at 1 mg/kg, iv; type: ADME, organism-based; details: in vivo
Compound,IC50 [1] [µM],IC50 [2] [µM],also measured
Fc1cc(Br)cc2c1nnn2-c1ccc2cn[nH]c2c1,> 20,> 20,
Cc1cc(F)c2nnn(-c3ccc4c(COC(Cc5ccccc5)(C(=O)O)C(=O)O)n[nH]c4c3)c2c1,1.52,1.1,
O=C(O)C(Cc1ccccc1)(OCc1n[nH]c2cc(-n3nnc4c(F)cc(NCc5ccccc5C5CC5)cc43)ccc12)C(=O)O,0.62,0.7,
CCOC(=O)C(Cc1ccccc1)(OCc1n[nH]c2cc(-n3nnc4c(F)cc(Br)cc43)ccc12)C(=O)O (stereo not given),7.1,> 20,
O=C(O)C(Cc1ccccc1)(OCc1n[nH]c2cc(-n3nnc4c(F)cc([C@@H](O)CO)cc43)ccc12)C(=O)O,1.1,1.31,
O=C(O)C(Cc1ccccc1)(OCc1n[nH]c2cc(-n3nnc4c(F)cc(NC5CCCC5)cc43)ccc12)C(=O)O,0.56,0.49,
C[C@H](Nc1cc(Cl)nc2c1cnn2[C@@H]1O[C@H](COP(=O)(O)CP(=O)(O)O)[C@@H](O)[C@H]1O)c1ccccc1F [QUEMLICLUSTAT],0.001,0.001,
O=C(O)C(Cc1cn[nH]c1)(OCc1n[nH]c2cc(-n3nnc4c(F)cc(Br)cc43)ccc12)C(=O)O,0.18,0.19,
COc1cccc2c1C(=O)c1c(O)c3c(c(O)c1C2=O)C[C@@](O)(C(=O)CO)C[C@@H]3O[C@H]1C[C@H](N)[C@H](O)[C@H](C)O1 [DOXORUBICIN],,,inhibition in vivo at 2.5 mg/kg [3]: 34.7%
CC(=O)Nc1nc(CC(OCc2n[nH]c3cc(-n4nnc5c(F)cc(Br)cc54)ccc23)(C(=O)O)C(=O)O)cs1,0.63,0.53,
Cc1noc(C)c1CC(OCc1n[nH]c2cc(-n3nnc4c(F)cc(Br)cc43)ccc12)(C(=O)O)C(=O)O,0.06,0.37,
O=C(O)C(Cc1ccccc1)(OCc1n[nH]c2cc(-n3nnc4c(F)cc(C5CCC5)cc43)ccc12)C(=O)O,0.62,1.42,
O=C(O)C(OCc1n[nH]c2cc(-n3nnc4c(F)cc(Br)cc43)ccc12)C(=O)O,3.4,8.7,
Cc1cccc(C)c1CC(OCc1n[nH]c2cc(-n3nnc4c(F)cc(Br)cc43)ccc12)(C(=O)O)C(=O)O,1.03,0.59,
O=C(O)C(Cc1ccc(F)cc1)(OCc1n[nH]c2cc(-n3nnc4c(F)cc(Br)cc43)ccc12)C(=O)O,0.4,0.54,
O=C(O)C(Cc1ccc(C(F)(F)F)o1)(OCc1n[nH]c2cc(-n3nnc4c(F)cc(Br)cc43)ccc12)C(=O)O,0.23,0.89,

Compound,IC50 [1] [µM],IC50 [2] [µM],also measured
Cc1ccccc1CC(OCc1n[nH]c2cc(-n3nnc4c(F)cc(Br)cc43)ccc12)(C(=O)O)C(=O)O,0.34,35,
Cn1cc(CC(OCc2n[nH]c3cc(-n4nnc5c(F)cc(Br)cc54)ccc23)(C(=O)O)C(=O)O)c(C(F)(F)F)n1,0.61,1.03,
CC(C)OCc1cc(F)c2nnn(-c3ccc4c(COC(Cc5ccccc5)(C(=O)O)C(=O)O)n[nH]c4c3)c2c1,1.77,1.55,
Cc1nnc(-c2c[nH]c(=O)[nH]c2=O)cc1[C@H]1C[C@@H]1C(C)C [LY-3475070],0.04,0.17,
O=C(O)C(Cc1ccc(C(F)(F)F)cc1)(OCc1n[nH]c2cc(-n3nnc4c(F)cc(Br)cc43)ccc12)C(=O)O,0.32,2.07,
C=Cc1cc(F)c2nnn(-c3ccc4c(COC(Cc5ccccc5)(C(=O)O)C(=O)O)n[nH]c4c3)c2c1,0.95,0.9,
Nc1cc(F)c2nnn(-c3ccc4c(COC(Cc5ccccc5)(C(=O)O)C(=O)O)n[nH]c4c3)c2c1,0.28,0.2,
O=C(O)C(Cc1ccccc1F)(OCc1n[nH]c2cc(-n3nnc4c(F)cc(Br)cc43)ccc12)C(=O)O,0.13,0.2,
O=C(O)C(Cc1ccccc1)(OCc1n[nH]c2cc(-n3nnc4c(F)cc(Cl)cc43)ccc12)C(=O)O,0.09,0.13,half-life [4]: 2.1 h
O=C(O)C(Cc1ccccc1)(OCc1n[nH]c2cc(-n3nnc4c(F)cc(NCc5ccccc5)cc43)ccc12)C(=O)O,0.55,0.33,
O=C(O)C(Cc1ccccc1)(OCc1n[nH]c2cc(-n3nnc4c(F)cc(Br)cc43)ccc12)C(=O)O,0.04,0.06,Cmax [5]: 124 ng/mL; Cmax [6]: 14500 ng/mL; AUC(0-t) [7]: 144 ng·h/mL; clearance [8]: 2.41 mL/min/kg; Activity [9]: Active; inhibition in vivo at 1 mg/kg [10]: 44.2%; Activity [11]: Active; inhibition in vivo at 50 mg/kg [12]: 41.1%; CL/F [13]: 1210 mL/min/kg; Tmax [14]: 0.5 h; Activity [15]: Active; inhibition in vivo at 1 mg/kg [16]: 12.5%; inhibition in vivo at 50 mg/kg [17]: 47.5%; Activity [18]: Active; Activity [19]: Non-Toxic; AUC(0-t) [20]: 7220 ng·h/mL; half-life [21]: 1.2 h; Tmax [22]: 4.8 min; half-life [23]: 1 h
CC(C)(C#N)c1ccc(CC(OCc2n[nH]c3cc(-n4nnc5c(F)cc(Br)cc54)ccc23)(C(=O)O)C(=O)O)cc1,0.38,0.69,
O=C(O)C(Cc1ccccc1)(OCc1n[nH]c2cc(-n3nnc4c(F)cc(C5CC5)cc43)ccc12)C(=O)O,1,1.43,
O=C(O)C(Cc1ccc(-c2ccccc2)cc1)(OCc1n[nH]c2cc(-n3nnc4c(F)cc(Br)cc43)ccc12)C(=O)O,1.62,0.78,
[2H]C([2H])(OC(Cc1ccccc1)(C(=O)O)C(=O)O)c1n[nH]c2cc(-n3nnc4c(F)cc(Cl)cc43)ccc12,0.1,,Cmax [5]: 68.6 ng/mL; Cmax [6]: 19100 ng/mL; AUC(0-t) [7]: 99.5 ng·h/mL; clearance [8]: 1.93 mL/min/kg; CL/F [13]: 1820 mL/min/kg; Tmax [14]: 0.3 h; AUC(0-t) [20]: 8740 ng·h/mL; half-life [21]: 2.1 h; Tmax [22]: 4.8 min; half-life [23]: 2.5 h
